Assay results as given in US10703748B2, “Diazanaphthalen-3-yl carboxamides and preparation and use thereof” (Samumed, LLC, priority 2017, dated 2020).
Read-outs that look alike come from different tables or passages of the source.

What was measured:
DYRK1A kinase = DYRK1A kinase (Homo sapiens, UniProt Q13627); experiment: DYRK1A kinase activity (Ser/Thr 18 peptide Z-lyte FRET assay); type: biochemical; conditions: recombinant DYRK1A, 30 μM ATP, one hour at room temperature;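 also: kinase activity read as coumarin/fluorescein emission ratio after development step, with unphosphorylated and phosphorylated peptide forms setting 0% and 100% controls, values from dose-response curves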
GSK3β kinase = GSK3β kinase (Homo sapiens, UniProt P49841); experiment: GSK3β kinase activity (Ser/Thr 09 peptide Z-lyte FRET assay); type: biochemical
Sequence of GSK3β kinase (P49841 whole entry): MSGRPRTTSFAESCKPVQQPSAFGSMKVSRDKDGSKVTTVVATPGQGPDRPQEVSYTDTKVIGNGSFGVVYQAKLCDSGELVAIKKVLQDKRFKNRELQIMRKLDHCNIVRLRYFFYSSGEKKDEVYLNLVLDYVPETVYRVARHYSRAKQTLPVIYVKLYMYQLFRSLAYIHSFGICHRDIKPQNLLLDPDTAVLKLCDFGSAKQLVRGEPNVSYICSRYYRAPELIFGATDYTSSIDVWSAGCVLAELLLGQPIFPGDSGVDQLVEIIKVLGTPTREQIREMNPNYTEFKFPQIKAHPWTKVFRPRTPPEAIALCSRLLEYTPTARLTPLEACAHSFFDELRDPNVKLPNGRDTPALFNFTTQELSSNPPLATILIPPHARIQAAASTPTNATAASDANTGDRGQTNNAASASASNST
Procedure: Each compound is dissolved in DMSO as a 10 mM stock and used to prepare compound source plates. Serial dilution (1:3, 11-point dose-response curves from 10 μM to 0.0003 μM) and compound transfer was performed using the ECHO 550 (Labcyte, Sunnyvale, Calif.) into 1536-well black-walled round bottom plates (Corning).
This is a non-radioactive assay using fluorescence resonance energy transfer (FRET) between coumarin and fluorescein to detect kinase activity which is represented as ratio of coumarin emission/fluorescein emission.
The mixture is allowed to incubate with the representative compounds for one hour at room temperature. All reactions were performed in duplicate. Unphosphorylated (“0% Control”) and phosphorylated (“100% control”) forms of Ser/Thr 18 serve as control reactions.
After incubation, diluted Development Buffer is added to the reaction and allowed to further incubate for one hour at room temperature.
Dose-response curves are generated and inhibitory concentration (IC50) values are calculated using non-linear regression curve fit in the Dotmatics' Studies Software (Bishops Stortford, UK).

[1] = system: secreted cytokines TNFα, IL-6 and KC-GRO; experiment: Secreted cytokines in Lipopolysaccharide-stimulated BV-2 cells (Table 9 does not say which cytokine); type: cell-based, mouse; conditions: Mus musculus, BV-2, 5 h
[2] = system: SW480 colon carcinoma cells; experiment: Cell viability assay (CellTiter-Glo); conditions: Homo sapiens; for EC50: SW480, 96 h; for inhibition at 10 µM: SW480, read-out: percent inhibition at 10 μM
[3] = system: Wnt-responsive Sp5-Luc reporter in SW480 colon carcinoma cells; experiment: Screening assay for Wnt activity (Sp5-Luc reporter gene assay); conditions: Homo sapiens; for EC50: SW480; for inhibition at 10 µM: SW480, read-out: percent inhibition at 10 μM
IL-6 = IL-6 inhibition in LPS-stimulated human peripheral blood mononuclear cells (HTRF); conditions: Homo sapiens, PBMC; for EC50: 22 h; for inhibition at 10 µM: read-out: percentage in parentheses after EC50 >10
[4] = system: α-smooth muscle actin (aSMA) positive LL29 cells; experiment: Inhibition of the fibrotic process: αSMA staining in TGF-β1 treated LL29 fibroblasts from IPF patients; conditions: Homo sapiens, Fibroblast; for EC50: 96 h; for inhibition at 10 µM: read-out: percentage in parentheses after EC50 >10
[5] = recombinant kinase, 46 μM ATP, one hour at room temperature, read-out: EC50

| SMILES | EC50 (DYRK1A kinase) | EC50 (GSK3β kinase; [5]) | EC50 ([1]; read-out: EC50) | EC50 [2] | EC50 [3] | EC50 (IL-6) | EC50 (GSK3β kinase) | EC50 [1] | inhibition at 10 µM (IL-6) | EC50 [4] | inhibition at 10 µM [4] | inhibition at 10 µM [2] | inhibition at 10 µM [3] |
| --- | --- | --- | --- | --- | --- | --- | --- | --- | --- | --- | --- | --- | --- |
| CN1CCCN(c2cc(C(=O)Nc3ncc4ccc(-c5cn(C)nn5)cc4n3)ccn2)CC1 [Compound 1285, 2-(4-Methyl-1,4-diazepan-1-yl)-N-(7-(1-methyl-1H-1,2,3-triazol-4-yl)quinazolin-2-yl)isonicotinamide] | 13 nM | 832 nM | 6800 nM | 3140 nM | 1650 nM | > 10000 nM |  |  | 2.1% | > 10000 nM | 5.5% |  |  |
| Cn1cnnc1-c1ccc2cnc(NC(=O)C3CCN(CCC(F)(F)F)CC3)nc2c1 [Compound 1297, N-(7-(4-Methyl-4H-1,2,4-triazol-3-yl)quinazolin-2-yl)-1-(3,3,3-trifluoropropyl)piperidine-4-carboxamide] | 57 nM | 38 nM | ≥ 10000 nM | > 10000 nM | > 10000 nM | > 10000 nM |  |  | 4.3% | > 10000 nM | 42.1% | 35.1% | 39.2% |
| Cc1ncc(-c2ccc3cnc(NC(=O)[C@H]4CC[C@H](CO)CC4)nc3c2)o1 [Compound 1447, trans-4-(Hydroxymethyl)-N-(7-(2-methyloxazol-5-yl)quinazolin-2-yl)cyclohexane-1-carboxamide] | 56 nM | 952 nM | 605 nM | > 10000 nM | 617 nM | > 10000 nM |  |  | 0% | > 10000 nM | 35.5% | 8.5% |  |
| CN1CCC(Oc2cccc(C(=O)Nc3ncc4ccc(-c5cnco5)cc4n3)c2)CC1 [Compound 1497, 3-((1-Methylpiperidin-4-yl)oxy)-N-(7-(oxazol-5-yl)quinazolin-2-yl)benzamide] | 30 nM | > 10000 nM | 334 nM | > 10000 nM | > 10000 nM | > 10000 nM |  |  | 4.8% | 2430 nM |  | 23.7% | 41.7% |
| O=C(Nc1ncc2ccc(-c3cncs3)cc2n1)[C@H]1CC[C@H](CN2CC(F)C2)CC1 [Compound 1519, trans-4-((3-fluoroazetidin-1-yl)methyl)-N-(7-(thiazol-5-yl)quinazolin-2-yl)cyclohexane-1-carboxamide] | 11 nM | 772 nM | 69 nM | > 10000 nM | 2280 nM | > 10000 nM |  |  | 2.9% | 2400 nM |  | 17.1% |  |
| O=C(Nc1ncc2ccc(-c3cncs3)cc2n1)C1CCN(C2COC2)CC1 [Compound 1523, 1-(Oxetan-3-yl)-N-(7-(thiazol-5-yl)quinazolin-2-yl)piperidine-4-carboxamide] | 47 nM | 1380 nM | 1800 nM | > 10000 nM | > 10000 nM | > 10000 nM |  |  | 6.2% | > 10000 nM | 24.9% | 15.1% | 13.7% |
| CN1CCN(c2cc(C(=O)Nc3ncc4ccc(-c5ccc(N)nc5)cc4n3)ccn2)CC1 [Compound 1713, N-(7-(6-Aminopyridin-3-yl)quinazolin-2-yl)-2-(4-methylpiperazin-1-yl)isonicotinamide] | 27 nM |  |  | 1560 nM | 1140 nM | > 10000 nM | > 10000 nM | 1000 nM | 5.7% | 5160 nM |  |  |  |
| C[C@H]1CCCN1CC(=O)Nc1cc2cc(-c3cnn(C)c3)cnc2cn1 [Compound 2767, (S)—N-(3-(1-Methyl-1H-pyrazol-4-yl)-1,7-naphthyridin-6-yl)-2-(2-methylpyrrolidin-1-yl)acetamide] | 34 nM | 2520 nM | 896 nM | > 10000 nM | > 10000 nM | > 10000 nM |  |  | 0% | > 10000 nM | 13.8% | 37% | 20.7% |
| CN(CC(=O)Nc1cc2cc(-c3cnn(C)c3)cnc2cn1)C1CCC1 [Compound 2776, 2-(Cyclobutyl(methyl)amino)-N-(3-(1-methyl-1H-pyrazol-4-yl)-1,7-naphthyridin-6-yl)acetamide] | 56 nM | > 10000 nM | 1000 nM | > 10000 nM | 836 nM | > 10000 nM |  |  | 10.4% | > 10000 nM | 39% | 8.1% |  |

Now from value to compound, other results behind:

| EC50 (DYRK1A kinase) | EC50 (GSK3β kinase; [5]) | EC50 ([1]; read-out: EC50) | EC50 [2] | EC50 [3] | EC50 (IL-6) | EC50 (GSK3β kinase) | EC50 [1] | SMILES | inhibition at 10 µM (IL-6) | EC50 [4] | inhibition at 10 µM [4] | inhibition at 10 µM [2] | inhibition at 10 µM [3] |
| --- | --- | --- | --- | --- | --- | --- | --- | --- | --- | --- | --- | --- | --- |
| 11 nM | 1350 nM | 812 nM | 4480 nM | 2180 nM | > 10000 nM |  |  | Cc1ncc(C(=O)Nc2ncc3ccc(-c4cnc(C)n4C)cc3n2)s1 [Compound 1353, N-(7-(1,2-Dimethyl-1H-imidazol-5-yl)quinazolin-2-yl)-2-methylthiazole-5-carboxamide] | 4.1% | > 10000 nM | 42% |  |  |
| 5 nM | 2780 nM | 1100 nM | 8600 nM | 2570 nM | 8060 nM |  |  | Cn1cncc1-c1ccc2cnc(NC(=O)c3cccc(CN4CCCC4)c3)nc2c1 [Compound 1356, N-(7-(1-Methyl-1H-imidazol-5-yl)quinazolin-2-yl)-3-(pyrrolidin-1-ylmethyl)benzamide] |  | 3600 nM |  |  |  |
| 2 nM | 453 nM | 6800 nM | > 10000 nM | > 10000 nM | > 10000 nM |  |  | Cn1cncc1-c1ccc2cnc(NC(=O)c3ccc4c(c3)CNC4)nc2c1 [Compound 1383, N-(7-(1-Methyl-1H-imidazol-5-yl)quinazolin-2-yl)isoindoline-5-carboxamide] | 3.1% | 3290 nM |  | 26.1% | 15.9% |
| 5 nM | 9990 nM | 221 nM | 331 nM | 184 nM | 2880 nM |  |  | CN1CCN(c2cc(C(=O)Nc3ncc4ccc(-c5cnc(N)s5)cc4n3)ccn2)CC1 [Compound 1589, N-(7-(2-aminothiazol-5-yl)quinazolin-2-yl)-2-(4-methylpiperazin-1-yl)isonicotinamide] |  | 911 nM |  |  |  |
| 2 nM | 8040 nM | 5500 nM | > 10000 nM | 3380 nM | > 10000 nM |  |  | Nc1cncc(-c2ccc3cnc(NC(=O)c4ccc(OC5CCNCC5)cc4)nc3c2)c1 [Compound 1710, N-(7-(5-Aminopyridin-3-yl)quinazolin-2-yl)-4-(piperidin-4-yloxy)benzamide] | 7.2% | > 10000 nM | 10.4% | 39.6% |  |
| 1 nM | 995 nM | 5 nM | 95 nM | 88 nM | > 10000 nM |  |  | CN1CC=C(c2cc(C(=O)Nc3ncc4ccc(-c5cncc(NC(C)(C)C)n5)cc4n3)ccn2)CC1 [Compound 1773, N-(7-(6-(tert-Butylamino)pyrazin-2-yl)quinazolin-2-yl)-1′-methyl-1′,2′,3′,6′-tetrahydro-[2,4′-bipyridine]-4-carboxamide] | 40.7% | 163 nM |  |  |  |
| 7 nM | 536 nM | 6800 nM | > 10000 nM | > 10000 nM | > 10000 nM |  |  | O=C(Nc1ncc2ccc(-c3cncc(NC4CCNCC4)n3)cc2n1)C1CCOCC1 [Compound 1783, N-(7-(6-(Piperidin-4-ylamino)pyrazin-2-yl)quinazolin-2-yl)tetrahydro-2H-pyran-4-carboxamide] | 6.1% | > 10000 nM | 53.7% | 38.8% | 14.4% |
| 7 nM | > 10000 nM | 4400 nM | 1370 nM | 1400 nM | > 10000 nM |  |  | CN1CCC(n2cc(C(=O)Nc3ncc4ccc(-c5cncc6[nH]ccc56)cc4n3)cn2)CC1 [Compound 1802, N-(7-(1H-Pyrrolo[2,3-c]pyridin-4-yl)quinazolin-2-yl)-1-(1-methylpiperidin-4-yl)-1H-pyrazole-4-carboxamide] | 47.2% | > 10000 nM | 47.6% |  |  |
| 2 nM | > 10000 nM | 952 nM | 1000 nM | 396 nM | > 10000 nM |  |  | CC(C)n1cc(C(=O)Nc2ncc3ccc(-c4cncc(NC5CCN(C)CC5)n4)cc3n2)cn1 [Compound 1813, 1-Isopropyl-N-(7-(6-((1-methylpiperidin-4-yl)amino)pyrazin-2-yl)quinazolin-2-yl)-1H-pyrazole-4-carboxamide] | 42% | 5820 nM |  |  |  |
